Where two headings read alike, the source gives them in different places.
Assays:
Phytophthora infestans [1] = format: in vivo; details: 100 ppm of active ingredient, spray on young tomato plants, inoculated one day after treatment, evaluated 7 days after inoculation
Plasmopara viticola = test: Example I: in vivo preventive test on Plasmopara viticola (grapevines); details: 10 ppm of active ingredient, spray on young grapevine plants, inoculated after spray coating dried, evaluated 6 days after inoculation
Description: To produce a suitable preparation of active compound, 1 part by weight of active compound is mixed with the stated amounts of solvent and emulsifier, and the concentrate is diluted with water to the desired concentration.
To test for preventive activity, young plants are sprayed with the preparation of active compound at the stated rate of application. After the spray coating has dried on, the plants are inoculated with an aqueous spore suspension of Plasmopara viticola and then remain for 1 day in an incubation cabinet at approximately 20° C. and a relative atmospheric humidity of 100%. The plant is subsequently placed for 4 days in a greenhouse at approximately 21° C. and a relative atmospheric humidity of approximately 90%. The plants are then misted and placed for 1 day in an incubation cabinet.
The test is evaluated 6 days after the inoculation. 0% means an efficacy which corresponds to that of the untreated control, while an efficacy of 100% means that no disease is observed.

[2] = for chromatographic logP: pH 2.7; for LogP: table 1, compounds of formula (I), HPLC reversed phase, pH 2.7, 0.1% formic acid in water / acetonitrile gradient
Phytophthora infestans [3] = format: in vivo; details: 500 ppm, spray on tomato plants, contaminated after 24 hours, grading 5 days after contamination vs control plants
Botrytis cinerea = test: Example C: in vivo preventive test on Botrytis cinerea (grey mould); details: 500 ppm, spray on gherkin plants, contaminated after 24 hours, grading 4 to 5 days after contamination vs control plants
Description: (§1) The active ingredients tested are prepared by homogenization in a mixture of acetone/tween/DMSO and then diluted with water to obtain the desired active material concentration.
(§2) Gherkin plants (“Vert petit de Paris” variety), sown in starter cups on a 50/50 peat soil-pozzolana substrate and grown at 24° C., are treated at the Z11 cotyledon stage by spraying with the active ingredient prepared as described above. Plants, used as controls, are treated with the mixture of acetone/tween/DMSO/water not containing the active material.
After 24 hours, the plants are contaminated by spraying the cotyledons with an aqueous suspension of cryopreserved Botrytis cinerea spores (50 000 spores per ml). The spores are suspended in a nutrient solution composed of 10 g/L of PDB, 50 g/L of D-Fructose, 2 g/L of NH4NO3 and 1 g/L of KH2PO4. The contaminated gherkin plants are incubated at 17° C. and at 90% relative humidity.
Grading (% of efficacy) is carried out 4 to 5 days after the contamination, in comparison with the control plants.
(§3) Under these conditions, good (at least 70%) or total protection is observed at a dose of 500 ppm with the following compounds: […]

[4] = pH 2.7
Alternaria brassicae = test: Example B: in vivo preventive test on Alternaria brassicae (leaf spot on radish); details: 500 ppm, spray on radish plants, contaminated after 24 hours, grading 6 days after contamination vs control plants
Description: (§4) The active ingredients tested are prepared by homogenization in a mixture of acetone/tween/DMSO, and then diluted with water to obtain the desired active material concentration.
Radish plants (“Pernod Clair” variety), sown in starter cups on a 50/50 peat soil-pozzolana substrate and grown at 17° C., are treated at the cotyledon stage by spraying with the active ingredient prepared as described above. Plants, used as controls, are treated with the mixture of acetone/tween/DMSO/water not containing the active material.
After 24 hours, the plants are contaminated by spraying the cotyledons with an aqueous suspension of Alternaria brassicae spores (50 000 spores per ml). The spores are collected from a 15-day-old culture. The contaminated radish plants are incubated at 20° C. and at 100% relative humidity.
Grading (% of efficacy) is carried out 6 days after the contamination, in comparison with the control plants.
as §3

Sphaerotheca fuliginea = test: Example D: in vivo preventive test on Sphaerotheca fuliginea (powdery mildew on cucurbits); details: 500 ppm, spray on gherkin plants, contaminated after 24 hours, grading 12 days after contamination vs control plants
Description: as §1, §2
After 24 hours, the plants are contaminated by spraying the cotyledons with an aqueous suspension of Sphaerotheca fuliginea spores (100 000 spores per ml). The spores are collected from infected plants. The contaminated gherkin plants are incubated at about 20° C. and at 70-80% relative humidity.
(§5) Grading (% of efficacy) is carried out 12 days after the contamination, in comparison with the control plants.
as §3

Pyrenophora teres = test: Example E: in vivo preventive test on Pyrenophora teres (net blotch on barley); details: 500 ppm, spray on barley plants, contaminated after 24 hours, grading 14 days after contamination vs control plants
Description: as §4
Barley plants (“Plaisant” variety), sown in starter cups on a 50/50 peat soil-pozzolana substrate and grown at 22° C., are treated at the 1-leaf stage (10 cm height) by spraying with the active ingredient prepared as described above. Plants, used as controls, are treated with the mixture of acetone/tween/DMSO/water not containing the active material.
After 24 hours, the plants are contaminated by spraying the leaves with an aqueous suspension of Pyrenophora teres spores (12 000 spores per ml). The spores are collected from a 12-day-old culture. The contaminated barley plants are incubated for 48 hours at 20° C. and at 100% relative humidity, and then for 12 days at 20° C. at 70-80% relative humidity.
Grading (% of efficacy) is carried out 14 days after the contamination, in comparison with the control plants.
as §3

Septoria tritici = test: Example G: in vivo preventive test on Septoria tritici (leaf spot on wheat); details: 500 ppm, spray on wheat plants, contaminated after 24 hours, grading 24 days after contamination vs control plants
Description: as §4
(§6) Wheat plants (“Scipion” variety), sown in starter cups on a 50/50 peat soil-pozzolana substrate and grown at 22° C., are treated at the 1-leaf stage (10 cm height) by spraying with the active ingredient prepared as described above. Plants, used as controls, are treated with the mixture of acetone/tween/DMSO/water not containing the active material.
After 24 hours, the plants are contaminated by spraying the leaves with an aqueous suspension of cryopreserved Septoria tritici spores (500 000 spores per ml). The contaminated wheat plants are incubated for 72 hours at 18° C. and at 100% relative humidity, and then for 21 days at 90% relative humidity.
Grading (% of efficacy) is carried out 24 days after the contamination, in comparison with the control plants.
as §3

Puccinia recondita = test: Example F: in vivo preventive test on Puccinia recondita (brown rust on wheat); details: 500 ppm, spray on wheat plants, contaminated after 24 hours, grading 12 days after contamination vs control plants
Description: as §4, §6
After 24 hours, the plants are contaminated by spraying the leaves with an aqueous suspension of Puccinia recondita spores (100 000 spores per ml). The spores are collected from an infected plant and are suspended in water containing 2.5 ml/l of Tween 80 at 10%. The contaminated wheat plants are incubated for 24 hours at 20° C. and at 100% relative humidity, and then for 10 days at 20° C. and at 70-80% relative humidity.
as §5, §3

Row | Compound | Eff. % (Phytophthora infestans [1]) | Eff. % (Plasmopara viticola) | chromatographic logP [2] | % efficacy (Phytophthora infestans [3]) | LogP [4] | also measured
1 | Cn1oc(=O)nc1/C(=N\OCc1csc(NC(=O)C2COc3ccccc3O2)n1)c1ccccc1 (stereo not drawn) [Example 9, N-{4-[({[(Z)-(2-methyl-5-oxo-2,5-dihydro-1,2,4-oxadiazol-3-yl)(phenyl)methylene]amino}oxy)methyl]-1,3-thiazol-2-yl}-2,3-dihydro-1,4-benzodioxine-2-carboxamide] | 98% | 97% | 3.11 | – | – | –
2 | CCC(C)SC(=O)Nc1nc(CON=C(c2ccccc2)c2nc(=O)on2C)cs1 (stereo not drawn) [Example 31] | – | – | – | 100% | 3.46 | % efficacy (Botrytis cinerea): 82%
3 | COc1cccc(/C(=N/OCc2csc(NC(=O)C3CCc4ccccc4O3)n2)c2nc(=O)on2C)c1 (racemic) [Example 35] | – | – | – | 90% | 3.44 | % efficacy (Alternaria brassicae): 100%
4 | Cn1oc(=O)nc1C(=NOCc1csc(NC(=O)OCCOc2ccccc2)n1)c1ccccc1 [Example 21] | 92% | – | – | 98% | 3.19 | % efficacy (Sphaerotheca fuliginea): 75%; % efficacy (Pyrenophora teres): 80%; % efficacy (Septoria tritici): 75%
5 | CC(COc1ccccc1)OC(=O)Nc1nc(CON=C(c2ccccc2)c2nc(=O)on2C)cs1 (stereo not drawn) [Example 28] | 92% | – | – | 97% | 3.46 | % efficacy (Pyrenophora teres): 85%; % efficacy (Septoria tritici): 75%
6 | Cn1oc(=O)nc1/C(=N\OCc1csc(NC(=S)Cc2ccc(Cl)cc2)n1)c1ccccc1 [Example 100, 2-(4-chlorophenyl)-N-{4-[({[(Z)-(2-methyl-5-oxo-2,5-dihydro-1,2,4-oxadiazol-3-yl)(phenyl)methylene]amino}oxy)methyl]-1,3-thiazol-2-yl}ethanethioamide] | – | – | 4.04 | – | – | –
7 | Cn1oc(=O)nc1C(=NOCc1csc(NC(=O)C2Cc3ccccc3O2)n1)c1ccccc1 (stereo not drawn) [Example 24] | 84% | 93% | – | 100% | 3.06 | –
8 | Cn1oc(=O)nc1C(=NOCc1csc(NC(=O)COC2CCCCC2)n1)c1ccccc1 [Example 23] | 100% | – | – | 100% | – | LogP [2]: 3.42
9 | C#CCCCOC(=O)Nc1nc(CON=C(c2ccccc2)c2nc(=O)on2C)cs1 [Example 29] | – | – | – | 95% | 2.77 | % efficacy (Puccinia recondita): 94%
10 | CC(OCc1ccccc1)C(=O)Nc1nc(CON=C(c2ccccc2)c2nc(=O)on2C)cs1 (stereo not drawn) [Example 19] | – | 91% | – | 100% | – | LogP [2]: 3.29
11 | Cn1oc(=O)nc1/C(=N/OCc1csc(NC(=S)Cc2ccc(Cl)cc2)n1)c1ccccc1 [Example 101, 2-(4-chlorophenyl)-N-{4-[({[(E)-(2-methyl-5-oxo-2,5-dihydro-1,2,4-oxadiazol-3-yl)(phenyl)methylene]amino}oxy)methyl]-1,3-thiazol-2-yl}ethanethioamide] | – | – | 3.85 | – | – | –
12 | COc1cccc(/C(=N/OCc2csc(NC(=O)OC3CCCCC3)n2)c2nc(=O)on2C)c1 [Example 33, Cyclohexyl {4-[({[(Z)-(3-methoxyphenyl)(2-methyl-5-oxo-2,5-dihydro-1,2,4-oxadiazol-3-yl)methylene]amino}oxy)methyl]-1,3-thiazol-2-yl}carbamate] | – | – | 3.57 | 88% | – | –
13 | COc1cccc(/C(=N/OCc2csc(NC(=O)OC(C)(C)C)n2)c2nc(=O)on2C)c1 [Example 34] | – | 95% | – | 100% | 3.13 | –
14 | C#CCCCCOC(=O)Nc1nc(CON=C(c2ccccc2)c2nc(=O)on2C)cs1 [Example 30] | – | 90% | – | 100% | 3.02 | % efficacy (Sphaerotheca fuliginea): 78%; % efficacy (Puccinia recondita): 98%
15 | C#CCCC(C)OC(=O)Nc1nc(CO/N=C(/c2ccccc2)c2nc(=O)on2C)cs1 (racemic) [Example 32] | – | – | – | 99% | 3.00 | % efficacy (Botrytis cinerea): 79%
16 | Cn1oc(=O)nc1/C(=N\OCc1csc(NC(=O)C2CCc3ccccc3O2)n1)c1ccccc1 (stereo not drawn) [Example 22, N-{4-[({[(Z)-(2-methyl-5-oxo-2,5-dihydro-1,2,4-oxadiazol-3-yl)(phenyl)methylene]amino}oxy)methyl]-1,3-thiazol-2-yl}chromane-2-carboxamide] | 100% | 96% | 3.35 | – | – | –

Reference: US9326515B2, “Fungicidal 3-[(1,3-thiazol-4-ylmethoxyimino)(phenyl)methyl]-2-substituted-1,2,4-oxadiazol-5(2H)-one derivatives” (BAYER INTELLECTUAL PROPERTY GMBH, priority 2011, dated 2016)
